According to patent US9266817B2, “Catecholamine derivatives for obesity and neurological disorders” (EMORY UNIVERSITY, priority 2009, dated 2016):

Key:
TrkB [1] = target: T1, TrkB (Rattus norvegicus, UniProt Q63604); test: Immunofluorescent staining with anti-phospho-TrkB Y816 in primary hippocampal neurons; type: cell-based; conditions: 300 nM, 30 min
T1 construct: endogenous in cells; host or cells: primary rat cortical and hippocampal neurons
Method: Primary Rat Cortical and Hippocampal Neuron Cultures
Primary hippocampal neurons were seeded on poly-L-lysine coated coverslips in a 12-well plate. After 7 days in vitro, the neurons were treated with 100 ng/ml BDNF or variety of neurotransmitters and 7,8-dihydroxyflavone compound (500 nM) for 30 min, and then washed with PBS. Cells were fixed with 3% formaldehyde in PBS at room temperature for 15 min. The cells were then permeabilized and blocked by 0.4% Triton X-100 and 2% FBS in PBS at room temperature for 15 minutes, washed with PBS three times and treated with anti-MAP2 (1:200) and anti-phospho-TrkB antibodies (1:100). After staining with FITC- or Rhodamine-conjugated secondary antibody, the coverslips were mounted on slides. Fluorescent images were taken by OLYMPUS IX71 fluorescence microscope (Olympus; Center Valley, Pa.).
(§1) To explore whether monoamine neurotransmitters, including catecholamines (see, e.g., FIG. 1), could stimulate TrkB activation, hippocampal neurons were treated with 300 nM of catecholamines, serotonin, and melatonin for 30 min.

TrkB [2] = target: T1, TrkB; test: Screening of catecholamine derivatives for TrkB activation in primary cortical neurons (anti-p-TrkB-Y-816 immunoblot); type: cell-based; conditions: 500 nM, 30 min
Method: Catecholamines can directly bind to the kinase domain of the TrkB receptor and activate it. However, the catecholamines are not able to cross through the blood brain barrier. […] Cortical neurons (7 DIV cortical neurons from 18 day old Sprague Dawley rat embryos) were treated with 500 nM of the selected compound for 30 min and cell lysates were prepared. The cell lysates ([…]) were analyzed for TrkB activation by immunoblotting with anti-p-TrkB-Y-816 antibody.
Catecholamine derivatives as described herein, including Compound I-2, Compound I-5, Compound I-7, Compound I-8, Compound I-9, Compound I-10, Compound I-11, Compound I-14, Compound I-15, Compound I-17, Compound I-18, and isoproterenol, were screened for TrkB activation in primary cortical neurons. Cortical neurons (7 DIV cortical neurons from 18 day old Sprague Dawley rat embryos) were treated with 500 nM of the selected compound for 30 min and cell lysates were prepared. The cell lysates ([…]) were analyzed for TrkB activation by immunoblotting with anti-p-TrkB-Y-816 antibody.

TrkB [3] = test: TrkB activation in mouse brain after administration of catecholamine derivatives (anti-p-TrkB-Y-816 immunoblot); type: in vivo; conditions: 50 mg/kg orally (in saline), C57BL/6J mice
Method: To explore whether these compounds could stimulate TrkB in vivo, 50 mg/kg of Compound I-11, Compound I-8, and Compound I-2 (2-(methylamino)-3′,4′-dihydroxy-acetophenone) were each orally administered (in saline) to 2-month-old C57BL/6J mice. The mice were sacrificed at different time points and TrkB activation in the brains of the mice was monitored by immunoblotting with anti-p-TrkB-Y-816 antibody.
To determine the minimal required dosages for Compound I-11 and Compound I-8, different doses of the compounds were each orally administered to mice. The mice were sacrificed after 4 hours, and the brain lysates were analyzed by immunoblotting with anti-p-TrkB-Y-816 antibody.
To search for orally bioactive catecholamines, catecholamine derivatives described herein were screened using primary neuronal cultures. The in vitro active compounds, Compounds I-8 and I-11, were adminstered into two to three month old C57BL/6J mice orally, intraperitoneally, and in drinking water. For oral administration, the mice were administered 0 mg (control), 5 mg, 10 mg, 20 mg, or 50 mg of Compound I-8 or Compound I-11. After 4 hours, TrkB phosphorylation in mouse brain was monitored by analyzing the brain lysates using immunoblotting with anti-p-TrkB-Y-816 antibody. The ratios of p-TrK/total TrkB were quantified (FIG. 27A). For intraperitoneal administration, 50 mg/kg of Compound I-8 or Compound I-11 were intraperitoneally injected into the mice. The brain lysates were prepared at different times (0 hr, 1 hr, 2 hr, 4 hr, and 8 hr) and were analyzed by immunoblotting with anti-p-TrkB-Y-816 antibody (FIG. 27B). Compound I-8 and Compound I-11 were dissolved in drinking water and given to mice. After 24 h, the brain lysates were prepared and analyzed by immunoblotting with anti-p-TrkB-Y-816 antibody (FIG. 27C). […] Therefore, these compounds are useful in treating various neurological or neuropsychiatric diseases as described herein.

TrkB [4] = target: T1, TrkB; test: TrkB activation in cortical neurons after pretreatment with antibodies, receptor antagonists, transporter inhibitors or EDTA (anti-p-TrkB-Y-816 immunoblot); type: cell-based
From the text: (§2) Both antidepressants and exercise increase hippocampal BDNF mRNA expression through enhanced 5-HT and/or NE neurotransmission (Siuciak et al., Pharmacol. Biochem. Behav., 56:131-137, 1997; Dias et al., Neuropharmacology, 45:553-563, 2003; Ivy et al., Pharmacol. Biochem. Behav., 75:81-88, 2003; Garza et al., Pharmacol. Biochem. Behav., 77:209-220, 2004). If catecholamines activated TrkB signaling indirectly by promoting BDNF generation, then scavenging BDNF with its specific antibody would be expected to diminish catecholamines-mediated activation of TrkB. Cultured cortical neurons were pretreated with BDNF-IgG for 30 minutes followed by exposure to BDNF (10 ng/ml) or catecholamines (100 nM) for 15 minutes. […] It was then determined whether catecholamines could activate TrkB in neurons cultured from mice carrying a null mutation of BDNF.
To further investigate the specificity of catecholamines in inducing TrkB activation, cortical neurons were pretreated with control IgG or norepinephrine IgG, a rabbit polyclonal antibody for norepinephrine, followed by catecholamines.
(§3) It was then determined whether catecholamines could activate TrkB in neurons cultured from mice carrying a null mutation of NET.
(§4) The cell lysates were analyzed by immunoblotting with anti-p-TrkB-Y-816.
as §4
A group of primary cortical neurons were pretreated with 1 mM EDTA, and another group of primary cortical neurons were not pretreated. Both groups of primary cortical neurons were then treated with either Zn (100 μM) or a catecholamine (100 nM) for 15 minutes. The neuronal cell lysates were analyzed by immunoblotting with anti-p-TrkB-Y-816 antibody.

TrkB [5] = type: in vivo; conditions: BDNF conditional knockout mice, compared to vehicle control
TrkB [6] = target: T1, TrkB; test: Immunoblotting of TrkB phosphorylation in primary cortical neurons treated with catecholamines; type: cell-based; conditions: for TrkB activation (immunoblotting of neuronal lysates): primary neurons
Method: Primary cultured rat cortical neurons were prepared as follows. E17 rat pups were decapitated and cortex was extirpated, cross chopped and suspended by pipetting for separation in 5% fetal calf serum (FCS), 5% horse serum (HS) DMEM. The cell suspension was then centrifuged at 250×g for 5 min. This operation was repeated. Cells were seeded into polyethyleneimine-coated 10 cm^2 dishes and 12-well plates including coated-coverslips and incubated at 37° C. in 5% CO2/95% air. After 3 hours, the culture medium was changed to Neurobasal containing B-27 supplement (Invitrogen; Carlsbad, Calif.) and incubated for 4 days. For maintenance, half of the culture medium was changed to fresh Neurobasal/B27 in every 4 days. After 1 week, the dished cultured neurons were ready for use.
as §1

TrkB [7] = target: T2, TrkB (Mus musculus, UniProt P15209, F616A); type: in vivo; conditions: L-DOPA 50 mg/kg, DOPS 100 mg/kg, 1NMPP1 50 μM
T2 construct: from tissue; host or cells: mouse brain
Method: The DOPS concentration was 20 mg/ml, the vitamin C concentration was 2 mg/ml, and the benserazide concentration was 5 mg/ml. The vitamin C prevents oxidation of the DOPS, and the benserazide is a peripheral inhibitor of AADC and restricts the production of NE from DOPS to the brain. The compounds were added to a tube, and 20 μl of 10 M HCl was added to each ml of DOPS solution. The appropriate amount of water was added to the tube, and then HCl was added to achieve the desired volume. For example, to make 1 mL of a DOPS solution, 20 mg DOPS, 2 mg vitamin C, and 5 mg benserazide were added to a tube, followed by 980 μL of water and 20 μL of 10 M HCl. The solution was vortexed until all DOPS was dissolved. The DOPS solution was injected subcutaneously in a volume of 50 μl/g of mouse. The appropriate amount of DOPS solution was pipetted into a clean tube, followed by the amount of 10 M NaOH required to exactly neutralize the HCl. The solution was then shaken. The amount of 10 M NaOH is the weight of the mouse in microliters. For example, for a 20 g mouse, pipet 1 ml of the DOPS solution is pipetted into a tube and 20 μL of 10 M NaOH is added. For a 30 g mouse, 1.5 mL of the DOPS solution is pipetted into a tube and 30 μl of 10 M NaOH is added. Two to four month-old TrkBF616A mice were pretreated with 1NMPP1 in drinking water (50 μM) 1 day before L-DOPA (50 mg/kg) or DOPS (100 mg/kg) intraperitoneal injection. At times of 2 hours and 5 hours after drug administration, the L-DOPA or DOPS-treated mice were sacrificed, respectively. The brain lysates were prepared and analyzed by immunoblotting against anti-phospho-TrkB Y816 and TrkA Y794 antibodies.
(§5) TrkB F616A mice were pretreated with 1NMPP1 (50 μM) before L-DOPA or DOPS administration.

TrkB [8] = target: T3, TrkB (Mus musculus, UniProt P15209); type: cell-based, mice; conditions: compared to wild-type control neurons
T3 construct: endogenous in cells; host or cells: primary cortical neurons from BDNF-null, TrkB +/- cross, TrkC knockout and NET -/- mice
Method: as §3

TrkB F616A = target: T4, TrkB F616A (Mus musculus, UniProt P15209, F616A); test: TrkB phosphorylation in TrkB F616A or TrkA F592A cortical neurons pretreated with K252a or 1NMPP1; type: cell-based, mice; conditions: TrkB F616A knock-in cortical neurons
T4 construct: endogenous in cells; host or cells: primary cortical neurons from TrkB F616A knock-in mice
Method: as §5
On day 7, the primary cortical neurons were pretreated with 100 nM K252a or 1NMPP1 for 30 min, followed by 500 nM ADPP and DDAP. Cell lysates were analyzed by Western blotting.

TrkB [9] = target: T3, TrkB; test: TrkB activation in cortical neurons cultured from BDNF-null mice; type: cell-based; conditions: 15 min
From the text: as §2

T1 sequence (Q63604 32-821): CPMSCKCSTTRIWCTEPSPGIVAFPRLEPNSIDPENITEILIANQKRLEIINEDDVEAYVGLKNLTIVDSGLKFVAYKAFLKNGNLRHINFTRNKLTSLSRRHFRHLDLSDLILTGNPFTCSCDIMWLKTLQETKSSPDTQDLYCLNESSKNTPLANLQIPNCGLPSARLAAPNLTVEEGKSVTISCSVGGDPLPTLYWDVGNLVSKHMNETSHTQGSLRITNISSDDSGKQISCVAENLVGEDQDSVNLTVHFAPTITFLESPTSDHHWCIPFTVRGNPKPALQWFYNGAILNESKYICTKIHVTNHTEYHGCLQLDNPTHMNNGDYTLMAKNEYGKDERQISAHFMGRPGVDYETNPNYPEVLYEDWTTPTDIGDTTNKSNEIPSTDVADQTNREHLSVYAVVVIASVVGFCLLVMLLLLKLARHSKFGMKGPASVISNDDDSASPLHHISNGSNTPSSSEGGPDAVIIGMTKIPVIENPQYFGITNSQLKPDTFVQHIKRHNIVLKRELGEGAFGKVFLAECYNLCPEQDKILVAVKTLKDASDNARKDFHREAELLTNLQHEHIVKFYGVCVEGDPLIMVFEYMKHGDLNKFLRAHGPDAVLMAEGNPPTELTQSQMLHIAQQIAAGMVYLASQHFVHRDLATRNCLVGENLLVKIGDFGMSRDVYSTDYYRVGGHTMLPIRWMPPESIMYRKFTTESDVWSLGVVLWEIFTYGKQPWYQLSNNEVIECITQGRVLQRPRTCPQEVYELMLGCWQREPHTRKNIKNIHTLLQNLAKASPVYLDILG
T3 sequence (P15209 32-821): as the sequence (Q63604 32-821) above, with M3T, T9S, T10A, I32V, K63R, G84S, T153M, I185L, T394S, N770S counted along it
T2 sequence (P15209 32-821 F616A): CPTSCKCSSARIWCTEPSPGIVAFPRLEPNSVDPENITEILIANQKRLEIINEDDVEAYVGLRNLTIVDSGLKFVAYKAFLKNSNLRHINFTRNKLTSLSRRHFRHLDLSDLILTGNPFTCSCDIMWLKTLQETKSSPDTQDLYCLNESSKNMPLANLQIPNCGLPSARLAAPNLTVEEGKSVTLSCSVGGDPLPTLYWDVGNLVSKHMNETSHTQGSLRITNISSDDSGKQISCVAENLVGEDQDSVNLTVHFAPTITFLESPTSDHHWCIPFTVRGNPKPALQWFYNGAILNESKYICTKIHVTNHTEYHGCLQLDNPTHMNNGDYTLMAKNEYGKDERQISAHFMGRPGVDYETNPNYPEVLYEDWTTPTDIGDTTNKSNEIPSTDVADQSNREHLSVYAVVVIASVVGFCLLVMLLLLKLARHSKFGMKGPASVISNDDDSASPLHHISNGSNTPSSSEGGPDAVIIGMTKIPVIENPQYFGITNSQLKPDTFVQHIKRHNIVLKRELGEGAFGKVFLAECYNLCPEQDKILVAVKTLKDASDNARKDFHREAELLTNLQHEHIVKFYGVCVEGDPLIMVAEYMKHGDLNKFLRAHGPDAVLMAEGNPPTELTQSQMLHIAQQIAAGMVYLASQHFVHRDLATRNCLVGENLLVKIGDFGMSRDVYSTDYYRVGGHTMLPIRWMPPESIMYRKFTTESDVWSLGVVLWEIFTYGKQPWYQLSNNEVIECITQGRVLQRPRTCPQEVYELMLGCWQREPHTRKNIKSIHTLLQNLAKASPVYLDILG
T4 sequence (P15209 32-821 F616A): as above

## O=C(O)Cc1c[nH]c2ccc(O)cc12 [Compound 5-HIAA, 5-hydroxyindoleacetic acid]
TrkB [1]
  TrkB tyrosine phosphorylation (immunofluorescent staining): had no effect

## NCCc1c[nH]c2ccc(OS(=O)(=O)O)cc12 [Compound 5-HT-sulfate, 5-HT-sulfate]
TrkB [1]
  TrkB tyrosine phosphorylation (immunofluorescent staining): had no effect

## CNCC(=O)c1ccc(O)c(O)c1 [Compound I-2, 2-(methylamino)-3′,4′-dihydroxy-acetophenone]
TrkB [2]
  TrkB activation in primary cortical neurons: display activity
TrkB [3]
  TrkB activation in the brains of the mice: failed to activate TrkB

## CN[C@@H](C(N)=O)C(=O)c1ccc(O)c(O)c1 [Compound I-7]
TrkB [2]
  TrkB activation in primary cortical neurons: display activity

## CN[C@@H](C(=O)N(C)C)[C@@H](O)c1ccc(O)c(O)c1 [Compound I-15]
TrkB [2]
  TrkB activation in primary cortical neurons: display activity

## O=C(O)CN(CCN(CC(=O)O)CC(=O)O)CC(=O)O [EDTA]
TrkB [4]; 1 mM EDTA, Zn 100 μM, 15 minutes
  Effect of EDTA on stimulatory activity of TrkB activation by Zn: blocked

## c1ccc(CCCN2CCN(CCOC(c3ccccc3)c3ccccc3)CC2)cc1 [GBR12935]
TrkB [4]; cortical neurons
  Effect of inhibitor on dopamine-mediated TrkB activation: significantly blocked

## N[C@@H](Cc1ccc(O)c(O)c1)C(=O)O [L-DOPA, L-dihydroxyphenylalanine]
TrkB [5]
  TrkB activation in BDNF -/- cortex: strongly triggered TrkB activation
TrkB [6]
  TrkB activation in primary cultured neurons: rapidly induced TrkB activation
TrkB [7]
  TrkB tyrosine phosphorylation/activation in mice: provoked evident TrkB activation

## NCCc1ccc(O)c(O)c1 [dopamine]
TrkB [8]
  TrkB activation in NET -/- neurons: notable TrkB activation

## COc1ccc2[nH]cc(CCNC(C)=O)c2c1 [melatonin]
TrkB [6]
  TrkB activation (immunoblotting of neuronal lysates): not activated
TrkB [1]
  TrkB tyrosine phosphorylation (immunofluorescent staining): did not

## NCCc1c[nH]c2ccc(O)cc12 [serotonin]
TrkB F616A
  TrkB phosphorylation provoked by the substance: had no effect
TrkB [6]
  TrkB activation (immunoblotting of neuronal lysates): not activated
TrkB [1]
  TrkB tyrosine phosphorylation (immunofluorescent staining): did not
TrkB [9]
  Activation of TrkB in BDNF-null cortical neurons: had no effect
